These results are taken from US6620828B2, “Thiazole compounds and pharmaceutical compositions for inhibiting protein kinases and methods for their use” (Agouron Pharmaceuticals, Inc., priority 1999, dated 2003).

Holding throughout (format): biochemical
For one assay, the target named is T1, CDK4/Cyclin D3 complex (Homo sapiens, UniProt P11802).
T1 construct: made in house; host or cells: insect cells co-infected with baculovirus vectors
The assay is described as follows: CDK4/Cyclin D assay. As to conditions: 1.0 μM; combinatorial library compounds. The procedure:
CDK4/Cyclin D Construct for Assay: A complex of human CDK4 and cyclin D3, or a complex of cyclin DI and a fusion protein of human CDK4 and glutathione-S-transferase (GST-CDK4), was purified using traditional biochemical chromatographic techniques from insect cells that had been co-infected with the corresponding baculovirus expression vectors.
CDK2/Cyclin A and CDK4/Cyclin D Assays
Cyclin-dependent kinase activity was measured by quantifying the enzyme-catalyzed, time-dependent incorporation of radioactive phosphate from [^32P]ATP into a recombinant fragment of the retinoblastoma protein. Unless noted otherwise, assays were performed in 96-well plates in a total volume of 50 μL, in the presence of 10 mM HEPES (N-[2-hydroxyethyl]piperazine-N′-[2-ethanesulfonic acid]) (pH 7.4), 10 mM MgCl2, 25 μM adenosine triphosphate (ATP), 1 mg/mL ovalbumin, 5 μg/mL leupeptin, 1 mM dithiothreitol, 10 mM β-glycerophosphate, 0.1 mM sodium vanadate, 1 mM sodium fluoride, 2.5 mM ethylene glycol-bis(β-aminoethyl ether)-N,N,N′N′-tetraacetic acid (EGTA), 2% (v/v) dimethylsulfoxide, and 0.03-0.2 μCi [^32P]ATP. The substrate (0.3-0.5 μg) was purified recombinant retinoblastoma protein fragment (Rb) (residues 386-928 of the native retinoblastoma protein; 62.3 kDa, containing the majority of the phosphorylation sites found in the native 106-kDa protein, as well as a tag of six histidine residues for ease of purification). Reactions were initiated with CDK2 (150 nM CDK2/Cyclin A complex) or CDK4 (50 nM CDK4/Cyclin D3 complex), incubated at 30° C., and terminated after 20 minutes by the addition of ethylenediaminetetraacetic acid EDTA) to 250 mM. The phosphorylated substrate was then captured on a nitrocellulose membrane using a 96-well filtration manifold, and unincorporated radioactivity was removed by repeated washing with 0.85% phosphoric acid. Radioactivity was quantified by exposing the dried nitrocellulose membranes to a phosphorimager. Apparent Ki values were measured by assaying enzyme activity in the presence of different compound concentrations and subtracting the background radioactivity measured in the absence of enzyme. The kinetic parameters (kcat, Km for ATP) were measured for each enzyme under the usual assay conditions by determining the dependence of initial rates on ATP concentration. The data were fit to an equation for competitive inhibition using Kaleidagraph (Synergy Software), or were fit to an equation for competitive tight-binding inhibition using the software KineTic (BioKin, Ltd.). Measured Ki values for known inhibitors against CDK4 and CDK2 agreed with published IC50 values. The specific activity of CDK4 was the same whether complexed to full-length cyclin D3 or the truncated Cyclin D3 construct; both complexes also yielded very similar Ki values for selected inhibitors.

A further assay has as its target T2, FL-CHK1 (Homo sapiens, UniProt O14757).
T2 construct: C-terminally His-tagged full-length human CHK1 (FL-CHK1); 6xHis (C); made in house; host or cells: baculovirus/insect cells
T2 sequence (O14757 1-476): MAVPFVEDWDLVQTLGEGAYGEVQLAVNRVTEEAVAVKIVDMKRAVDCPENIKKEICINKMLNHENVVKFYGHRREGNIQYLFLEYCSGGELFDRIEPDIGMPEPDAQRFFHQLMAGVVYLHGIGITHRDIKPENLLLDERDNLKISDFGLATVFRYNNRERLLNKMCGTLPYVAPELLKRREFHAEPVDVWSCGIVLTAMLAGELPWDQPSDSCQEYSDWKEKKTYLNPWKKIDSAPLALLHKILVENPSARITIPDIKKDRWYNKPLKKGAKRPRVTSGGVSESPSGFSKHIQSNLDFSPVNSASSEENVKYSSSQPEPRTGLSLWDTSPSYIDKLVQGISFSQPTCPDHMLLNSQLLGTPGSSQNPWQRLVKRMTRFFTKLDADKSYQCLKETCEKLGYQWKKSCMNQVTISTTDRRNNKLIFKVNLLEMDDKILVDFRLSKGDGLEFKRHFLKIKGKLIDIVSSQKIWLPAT
The assay is described as follows: CHK1 assay. Conditions: 20 μM; combinatorial library compounds. The essentials:
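Full-length human CHK1 with C-terminal 6×His tag, made in baculovirus/insect cells, 10 nM, phosphorylating 0.125 mM Syntide-2 with 0.15 mM ATP in 50 mM Tris pH 7.5, 25 mM MgCl2, 400 mM NaCl. PK/LDH-coupled NADH oxidation read at 340 nm. Ki from initial rates over varied compound concentrations.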

The target of the next assay is CDK2/Cyclin A complex (Homo sapiens, UniProt P24941). Nature of the assay: CDK2/Cyclin A assay. As to conditions: 1.0 μM; combinatorial library compounds. The procedure, abridged:
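Radiometric assay: 150 nM CDK2/cyclin A (insect-cell CDK2, truncated cyclin A) phosphorylates His-tagged Rb fragment (residues 386-928) with 25 μM ATP plus [32P]ATP, pH 7.4 HEPES, 2% DMSO, 30 °C for 20 min. Filter-captured product counted by phosphorimager; apparent Ki from competitive or tight-binding inhibition fits.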

In assay [1] the target is T3, phosphorylated VEGF-R2Δ50 (FLVK-P) (Homo sapiens, UniProt P35968, DEL940-989/E990V).
T3 construct: VEGF-R2Δ50 contains residues 806-939 and 990-1171; made in house; host or cells: baculovirus/insect cells
Nature of the assay: VEGF-R2 coupled spectrophotometric (FLVK-P) assay. Conditions: combinatorial library compounds; for inhibition at 20 µM: read-out: VEGF % inhibition at 20 μM, 20 μM. An excerpt: VEGF-R2 Construct for Assay: This construct determines the ability of a test compound to inhibit tyrosine kinase activity. A construct (VEGF-R2Δ50) of the cytosolic domain of human vascular endothelial growth factor receptor 2 (VEGF-R2) lacking the 50 central residues of the 68 residues of the kinase insert domain was expressed in a baculovirus/insect cell system. Of the 1356 residues of full-length VEGF-R2, VEGF-R2Δ50 contains residues 806-939 and 990-1171, and also one point mutation (E990V) within the kinase insert domain relative to wild-type VEGF-R2. Autophosphorylation of the purified construct was performed by incubation of the enzyme at a concentration of 4 μM in the presence of 3 mM ATP and 40 mM MgCl2 in 100 mM Hepes, pH 7.5, containing 5% glycerol and 5 mM DTT, at 4° C. for 2 h. […] See Parast et al., Biochemistry, 37, 16788-16801 (1998).
Coupled Spectrophotometric (FLVK-P) Assay
The production of ADP from ATP that accompanies phosphoryl transfer was coupled to oxidation of NADH using phosphoenolpyruvate (PEP) and a system having pyruvate kinase (PK) and lactic dehydrogenase (LDH). The oxidation of NADH was monitored by following the decrease of absorbance at 340 nm (e340=6.22 cm^−1 mM^−1) using a Beckman DU 650 spectrophotometer. Assay conditions for phosphorylated VEGF-R2Δ50 (indicated as FLVK-P in the tables below) were the following: 1 mM PEP; 250 μM NADH; 50 units of LDH/mL; 20 units of PK/mL; 5 mM DTT; 5.1 mM poly(E4Y1); 1 mM ATP; and 25 mM MgCl2 in 200 mM Hepes, pH 7.5. Assay conditions for unphosphorylated VEGF-R2Δ50 (indicated as FLVK in the tables) were the following: 1 mM PEP; 250 μM NADH; 50 units of LDH/mL; 20 units of PK/mL; 5 mM DTT; 20 mM poly(E4Y1); 3 mM ATP; and 60 mM MgCl2 and 2 mM MnCl2 in 200 mM Hepes, pH 7.5. Assays were initiated with 5 to 40 nM of enzyme. Ki values were determined by measuring enzyme activity in the presence of varying concentrations of test compounds. The data were analyzed using Enzyme Kinetic and Kaleidagraph software.

T1 sequence (P11802 whole entry): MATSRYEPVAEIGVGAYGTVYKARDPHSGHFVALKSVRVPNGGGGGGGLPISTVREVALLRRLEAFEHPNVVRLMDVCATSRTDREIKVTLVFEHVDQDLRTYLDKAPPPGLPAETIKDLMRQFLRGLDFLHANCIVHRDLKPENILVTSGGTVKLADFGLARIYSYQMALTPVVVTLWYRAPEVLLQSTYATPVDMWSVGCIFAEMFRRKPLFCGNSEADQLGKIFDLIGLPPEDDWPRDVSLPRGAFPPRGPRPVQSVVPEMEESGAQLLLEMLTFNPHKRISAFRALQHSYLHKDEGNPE
T1 sequence (P30281 whole entry partner): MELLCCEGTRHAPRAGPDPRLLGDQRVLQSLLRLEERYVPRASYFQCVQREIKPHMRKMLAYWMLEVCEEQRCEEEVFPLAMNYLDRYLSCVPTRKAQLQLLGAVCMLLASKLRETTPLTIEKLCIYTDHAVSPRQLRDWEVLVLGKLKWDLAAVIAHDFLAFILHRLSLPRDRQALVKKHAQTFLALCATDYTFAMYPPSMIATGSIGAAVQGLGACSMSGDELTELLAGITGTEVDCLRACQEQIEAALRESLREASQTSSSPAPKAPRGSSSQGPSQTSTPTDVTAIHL
T3 sequence (P35968 with tags, fused parts or gaps DEL940-989/E990V limits assumed): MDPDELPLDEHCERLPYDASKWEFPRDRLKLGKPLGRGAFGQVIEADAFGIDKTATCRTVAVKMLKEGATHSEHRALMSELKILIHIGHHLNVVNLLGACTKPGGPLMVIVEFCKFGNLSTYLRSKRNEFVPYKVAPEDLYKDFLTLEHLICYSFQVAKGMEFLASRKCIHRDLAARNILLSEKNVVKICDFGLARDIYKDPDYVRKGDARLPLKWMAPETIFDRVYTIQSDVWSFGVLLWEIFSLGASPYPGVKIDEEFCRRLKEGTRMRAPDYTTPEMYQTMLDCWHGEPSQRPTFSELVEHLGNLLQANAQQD

As usually defined, the inhibition is the relative decrease from the control value, in per cent. For the compound `COc1ccc(OC)c(-c2csc(-c3sc(Nc4ccc(C(C)C)cc4)nc3N)n2)c1`, the values for the inhibition at 1 µM at CDK4/Cyclin D3 complex and on CDK2/Cyclin A complex were 79.4% and 12.2%, respectively. The inhibition at 20 µM is -5.2% at FL-CHK1 and 12% in assay [1].

In the case of `COc1cc(OC)c(-c2csc(-c3sc(Nc4ccc(C(C)C)cc4)nc3N)n2)c(O)c1Cl`, the results for the inhibition at 1 µM at CDK4/Cyclin D3 complex and on CDK2/Cyclin A complex were 72.8% and 31.8%, respectively. The inhibition at 20 µM stood at 38.9% at FL-CHK1 and 51% in assay [1].

For `Nc1nc(Nc2ccc(S(N)(=O)=O)cc2)sc1-c1nc(-c2ccc([N+](=O)[O-])cc2)cs1`, the inhibition at 1 µM at CDK4/Cyclin D3 complex was -16.3%; on CDK2/Cyclin A complex, 27.7%. For the same compound, the inhibition at 20 µM was 11% on FL-CHK1 and 3% in assay [1].

Take `CC(C)c1ccc(Nc2nc(N)c(-c3nc(-c4ccccc4)cs3)s2)cc1` [drawing 484]: on CDK4/Cyclin D3 complex, the “CDK4 % Inhibition at 1.0 μM” value is recorded as −42.5%. At FL-CHK1, the “CHK1 % Inhibition at 20 μM” value is on record as 4%. Besides, on CDK2/Cyclin A complex, the inhibition at 1 µM is 23.3%. Also, the “VEGF % inhibition at 20 μM” value in assay [1] is reported as −4%.

For the compound `CC(C)c1ccc(Nc2nc(N)c(-c3nc(-c4ccc(CC(=O)O)s4)cs3)s2)cc1`, the inhibition at 1 µM came to 61.8% at CDK4/Cyclin D3 complex and 21.8% on CDK2/Cyclin A complex. The inhibition at 20 µM is 13% on FL-CHK1 and 33% in assay [1].

`Cc1cc(-c2csc(-c3sc(Nc4ccc(N(C)C)cc4)nc3N)n2)cc(C)c1O`: the inhibition at 1 µM at CDK4/Cyclin D3 complex was found to be 52.4%; at CDK2/Cyclin A complex, 29.8%. Moreover, the values for the inhibition at 20 µM (on FL-CHK1; in assay [1]) were 27.2% and 24%, respectively.

For `CCOC(=O)c1ccccc1-c1csc(-c2sc(Nc3ccc(N(C)C)cc3)nc2N)n1`, the inhibition at 1 µM on CDK4/Cyclin D3 complex is 45.9%; at CDK2/Cyclin A complex, 19.8%. The inhibition at 20 µM at FL-CHK1 worked out at 38.5%; in assay [1], 25%.

As for `COc1ccc(OC)c(-c2csc(-c3sc(Nc4ccc(N(C)C)cc4)nc3N)n2)c1`, the inhibition at 1 µM at CDK4/Cyclin D3 complex was 68.7%; at CDK2/Cyclin A complex, 15.6%. The inhibition at 20 µM is 14.1% at FL-CHK1 and 13% in assay [1].

Consider `CN(C)c1ccc(Nc2nc(N)c(-c3nc(-c4ccc5ccccc5c4)cs3)s2)cc1`, for which the inhibition at 1 µM was 45.5% on CDK4/Cyclin D3 complex and 26.9% on CDK2/Cyclin A complex. Also, the values for the inhibition at 20 µM (on FL-CHK1; in assay [1]) were 19.6% and 5%, respectively.

As for `CN(C)c1ccc(Nc2nc(N)c(-c3nc(-c4ccc5c(c4)OCCO5)cs3)s2)cc1`, the inhibition at 1 µM on CDK4/Cyclin D3 complex turned out to be 56.5%; on CDK2/Cyclin A complex, 5%. Further, the inhibition at 20 µM was determined as 40.8% on FL-CHK1 and 16% in assay [1].

As to `CC(C)c1ccc(Nc2nc(N)c(-c3nc(-c4ccc(O)c(O)c4)cs3)s2)cc1`, the inhibition at 1 µM at CDK4/Cyclin D3 complex was 62.7%; at CDK2/Cyclin A complex it was 23.8%. For the same compound, the inhibition at 20 µM on FL-CHK1 was found to be 31.6%; in assay [1], 28%.

Regarding `CCN(CC)c1ccc(-c2csc(-c3sc(Nc4ccc(S(N)(=O)=O)cc4)nc3N)n2)cc1`, the inhibition at 1 µM amounted to 29.3% on CDK4/Cyclin D3 complex and 34.8% at CDK2/Cyclin A complex. Moreover, the values for the inhibition at 20 µM (at FL-CHK1; in assay [1]) were 6.1% and 10%, respectively.

Take `Nc1nc(Nc2ccc(S(N)(=O)=O)cc2)sc1-c1nc(-c2ccc(Cl)cc2)cs1`: the figures for the inhibition at 1 µM on CDK4/Cyclin D3 complex and at CDK2/Cyclin A complex were 10.9% and 18.5%, respectively. Moreover, the inhibition at 20 µM was found to be 4.4% at FL-CHK1 and 27% in assay [1].

For the compound `CC(C)c1ccc(Nc2nc(N)c(-c3nc(-c4cccc(OC(=O)c5ccccc5)c4)cs3)s2)cc1`, the results for the inhibition at 1 µM on CDK4/Cyclin D3 complex and at CDK2/Cyclin A complex were 48% and 21.7%, respectively. Besides, the inhibition at 20 µM on FL-CHK1 was found to be 8.8%; in assay [1] it was 5%.

Turning to `CN(C)c1ccc(Nc2nc(N)c(-c3nc(-c4ccccc4)cs3)s2)cc1` [drawing 547], at CDK4/Cyclin D3 complex, the “CDK4 % Inhibition at 1.0 μM” value was −48.3%. In addition, the figures for the inhibition at 20 µM (at FL-CHK1; in assay [1]) were 13.1% and 17%, respectively. The inhibition at 1 µM at CDK2/Cyclin A complex was found to be 17.2%.

In the case of `COc1ccc(-c2csc(-c3sc(Nc4ccc(S(N)(=O)=O)cc4)nc3N)n2)cc1` [drawing 425], the “CDK4 % Inhibition at 1.0 μM” value on CDK4/Cyclin D3 complex is recorded as 40.9%. Besides, the “CHK1 % Inhibition at 20 μM” value at FL-CHK1 turned out to be 10.7%. Besides, the “CDK2 % Inhibition at 1.0 μM” value on CDK2/Cyclin A complex is 54.2%. In addition, the “VEGF % inhibition at 20 μM” value in assay [1] is 11%.

Turning to `COc1ccc(-c2csc(-c3sc(Nc4ccc(N(C)C)cc4)nc3N)n2)cc1` [drawing 551], the “CDK4 % Inhibition at 1.0 μM” value at CDK4/Cyclin D3 complex was determined as 83%. Besides, the “CHK1 % Inhibition at 20 μM” value at FL-CHK1 worked out at 34.8%. In addition, the “CDK2 % Inhibition at 1.0 μM” value at CDK2/Cyclin A complex turned out to be 29.8%. Moreover, the “VEGF % inhibition at 20 μM” value in assay [1] came to 23%.

Turning to `Cc1c(-c2csc(-c3sc(Nc4ccc(N(C)C)cc4)nc3N)n2)sc2ccc(Cl)cc12` [drawing 550], on CDK4/Cyclin D3 complex, the inhibition at 1 µM amounted to 64.3%. Also, the inhibition at 20 µM at FL-CHK1 amounted to 41.9%; in assay [1] it was 31%. In addition, the “CDK2 % Inhibition at 1.0 μM” value at CDK2/Cyclin A complex stood at 17.1%.
